Laboratory results published in publication PMC10279755 (Nature Communications, 2023).
Like-named read-outs stand apart in the source and are kept apart here. Ends that are not written are not given here.

Legend:
trypsin [1] = target: T1, trypsin (Sus scrofa, UniProt P00761); test: Trypsin cleavage of switch peptide followed by MALDI-TOF MS; type: biochemical
T1 construct: purchased VWR (Radnor, PA, USA)
Method: We followed the kinetics of Lys residue cleavage by trypsin and functional peptide formation using MALDI-TOF mass spectrometry (MS). We tracked disappearance of the switch peptide peak and evolution of the intermediate or functional peptide peak (SYIGR or Ac-YIGSR; both have the same exact mass) after treatment with trypsin. […] After 3 h, the intensity of both signals was similar, and after 24 h the switch peptide signal disappeared completely, while the intermediate/functional peptide peak became dominant, indicating near-complete conversion.
Addition of the KRB unit created a new potential cleavage site for trypsin at the C-terminal side of the Arg residue (i.e., the R–KRB peptide bond). To ensure the desired response still occurred, i.e., cleavage of the K–SYIG peptide bond to remove the N-terminal Lys residue, we designed an experiment to follow the transformation of KSYIGRK as a representative peptide that contains two potential cleavage points, the desired K–SYIG peptide bond and the undesired R–K peptide bond. We treated this peptide with trypsin and followed bond cleavage at these two sites using MALDI-TOF MS. […] However, we envisioned that this undesired cleavage would not be a problem in cell studies because it would simply generate a KRB species that would be removed in washing steps.
Switch peptide solution (100 μL, 5 mg/mL in PBS) was mixed with 20 μL of a trypsin solution (0.25%) in a vial and placed at 37 °C in an incubator. Aliquots (2 μL) from each reaction solution were withdrawn at specific times, and trypsin was deactivated immediately by the addition of acetic acid (0.3 μL, 1 M in distilled water). Samples (0.8 μL) were then mixed with a matrix solution (0.8 μL, 0.02 M α-cyano-4-hydroxycinnamic acid dissolved in acetonitrile/methanol/water (1:1:1) with 0.1% formic acid) and deposited on a MALDI plate (Opti-TOF 384 Well, 123 × 81 mm). Samples were analyzed using a matrix-assisted laser desorption ionization−tandem time-of-flight mass spectrometer (4800 MALDI TOF/TOF, AB Sciex).

aminopeptidase N (APN) = test: In vitro aminopeptidase N (APN) activity assay with Ala-MCA in HUVECs; type: cell-based, human; settings: 100 μM Ala-MCA in PBS, curcumin 50 µM, 24 h, fluorescence λex 360 nm, λem 460 nm
Method: HUVEC cells were plated in a 96-well plate at a density of 5000 cells per well in 200 μL complete ECGM V2 media per well. After culturing for 24 h, cells were washed with 1X PBS two times. […] The release of fluorescent product 7-amino-4-methylcoumarin in the media was monitored on the plate reader (BioTek Cytation3 imaging reader) with λex of 360 nm and peak λem of 460 nm.

HUVECs [2] = system: HUVECs; set-up: method as in earlier work; settings: curcumin up to 100 µM, up to 72 h; ref Kumar et al. 1998; Do et al. 2022; Ouyang et al. 2019; Hosseini et al. 2019; Yuan et al. 2022; cited from earlier work
Description: page 17: Reviewer #3 Specific Comment 1. I have one very major concern that should be experimentally addressed.

[3] = system: HUVECs (cell surface laminin receptor integrin); test: In vitro study of biological function using fluorescent probe: rhodamine B-labeled peptide attachment to HUVECs (CTCF); type: cell-based, human
Method: HUVECs were plated at a density of 0.1 million cells per well in a 24-well plate with 0.5 mL complete ECGM per well and cultured for 24 h, followed by washing with 1× PBS three times and the addition of 950 μL serum-free ECGM per well. Rhodamine B labeled peptide solution (50 μL in serum-free ECGM, 1 mM) was mixed with 0.05% trypsin (5 μL). The mixed solution was then added to each well for a total volume of 1005 μL. Cells were incubated with the mixed solution for various time periods. At different time points (1 h up to 30 h), the media was removed, and cells were washed with PBS three times. Fresh PBS (500 μL) was added to the wells, and the plate was visualized by bright-field and fluorescence microscopy (Nikon Eclipse Ti−U) with TRITC filter set. The magnification was 20×. Corrected total cell fluorescence (CTCF) intensity was estimated using the equation CTCF = integrated density − (area of selected cell) × (mean fluorescence of background). A rectangular drawing/selection tool in ImageJ was used to select a desired region with fluorescence, and its integrated density and area were measured. […] Cell counts were 30 for each group from three separate wells.
The corrected total cell fluorescence (CTCF) was calculated as follows:1 2 CTCF = integrated density – (area of selected cell × mean fluorescence of background readings)
Supplementary Table 1. Statistics Data of CTCF at each timepoint measured from fluorescence images of Ac-E5G2KSYIGR-KRB with trypsin, and control peptides mentioned […]
Comparison Mean q P value […]
Group comparisons are indicated as determined by a one -way analysis of variance (ANOVA) with a Student−Newman−Keuls comparisons post hoc test. *** indicates p < 0.001, ** indicates p < 0.01, * indicates p < 0.05, and ns indicates no significance among indicated

trypsin [4] = test: trypsin (0.08 wt% total) in PBS buffer; settings: 37 °C
HUVECs [5] = test: Cell viability assay (CCK-8); type: cell-based, human
Method: HUVECs (ATCC catalog number PCS-100-010) were plated in a 96-well plate at a density of 5000 cells per well in 200 μL complete ECGM per well. After culturing for 24 h, the media was discarded and the cells were washed with 1X PBS three times before […] serum-containing ECGM media was added. Next, varying amounts of peptide stock solution (4 mM in PBS) were diluted to […] with PBS and added to the wells to make the final peptide concentrations ranging from 10 to 200 µM. After incubation for 24 h, cells were washed three times with PBS and then treated with serum-free ECGM media (100 μL). Next, 10 μL cell counting kit 8 solution (CCK-8, Dojindo, Rockville, MD) was added to each well. After incubation for another 3 h to allow for development of the CCK8 dye, absorbance was recorded at 450 and 750 nm using a BioTek Synergy Mx plate reader (BioTek, Winooski, VT). Worked-up data (absorbance at 750 nm subtracted from absorbance at 450 nm) were graphed using GraphPad InStat, version 3 (GraphPad Software, Inc., San Diego, CA). Mean values are reported together with the standard deviation (SD) representing the combination of 3 independent experimental runs with five replicates per experiment.

trypsin [6] = test: trypsin solution (0.25%) mixed with switch peptide solution in PBS; settings: 37 °C, up to 24 h
CD29 (integrin β1) = test: Immunofluorescence co-localization with CD29; type: cell-based, human; settings: HUVECs, 50 µM peptide, 24 h, fixed, confocal microscopy, done once
Method: HUVEC cells were seeded in an 8-chamber glass slide (Lab-Tek Chamber Slide) at a density of 30,000 cells per well in 0.4 mL complete ECGM media per well. After culturing for 24 h, cells were washed twice with 1× PBS. The cells were then incubated with 395 μL of serum-free ECGM media […] in the following groups: Blank (5 μL PBS), and 4 mM Ac-YIGSR-KRB (5 μL in PBS, final concentration 50 µM). After incubation for 24 h, the media was removed, and cells were washed with PBS three times. Cultured cells were then fixed in 10% formalin for 5 min, then washed three times with PBS for 5 min each. Slides were blocked for 1 h with 2% cold water fish skin gelatin (Sigma, Inc., St. Louis, MO, USA) and 0.2% triton-X100 solution. Slides were then incubated in conjugated primary antibody diluted in blocking solution overnight at room temperature, then washed with PBS five times for 10 min each. The antibody used was FITC Armenian hamster anti-mouse/rat CD29 at a 1:50 dilution (Biolegend, San Diego, CA, USA; Catalog number 102205, clone HMbeta1-1), validated by the manufacturer by immunofluorescent staining with flow cytometric analysis. Finally, slides were mounted with DAPI Fluoromount-G (SouthernBiotech, Birmingham, AL, USA). Images were then obtained using a Nikon A1 Confocal Microscope with NIS Elements Imaging Software (Melville, New York, USA).

[7] = switch peptide 5 mg/mL in PBS (100 μL) + 20 μL 0.25% trypsin, 37 °C

T1 sequence (P00761 9-231): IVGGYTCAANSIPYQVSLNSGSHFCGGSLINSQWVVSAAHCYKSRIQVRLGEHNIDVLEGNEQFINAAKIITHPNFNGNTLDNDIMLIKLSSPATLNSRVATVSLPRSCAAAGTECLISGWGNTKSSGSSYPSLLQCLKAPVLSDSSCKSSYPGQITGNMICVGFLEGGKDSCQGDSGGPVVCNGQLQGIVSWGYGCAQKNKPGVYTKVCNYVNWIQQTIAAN

For “KSYIGR (also: lariat or depsi (positions not given here)) [non-functional depsipeptide; SYIG = Ser residue esterified with Ac-YIG; trypsin removes N-terminal Lys]”, the “time after which switch peptide signal (m/z = 764) started to decrease” value (trypsin [1]; [7]) was 1 h, the “time at which intensity of switch peptide and intermediate/functional peptide signals was similar” value (trypsin [1]; [7]) was 3 h and the “time at which switch peptide signal disappeared completely (near-complete conversion)” value (trypsin [1]; [7]) was 24 h.

For `COc1cc(/C=C/C(=O)CC(=O)/C=C/c2ccc(O)c(OC)c2)ccc1O` [curcumin], the “APN activity remaining with inhibitor” value (aminopeptidase N (APN)) is given as ~ 25% and the “viability of HUVECs” value (HUVECs [2]) is given as over 80%.

With “Ac-E5G2KSYIGRKRB (lariat or depsi) [Ac-E5G2KSYIGR-KRB, switch peptide labeled with the fluorescent probe rhodamine B]” the “fluorescence signal on HUVECs after washing (in words)” value (“fluorescence signal on HUVECs” for short) ([3]; with trypsin, 1 h) was “negligible fluorescent signal”, the “fluorescence signal on HUVECs” value ([3]; with trypsin, 30 h) was “strong signal” and the “fluorescence signal on HUVECs” value ([3]; without trypsin, 30 h) was “no fluorescence signal”.

In the case of Ac-KSYIGRK, the cleaved bond (trypsin [4]) is reported as “K-S and R-K”.

With “Ac-YIGSR [functional cell-adhesive pentapeptide derived from the ECM protein laminin, reference compound]” the “cytotoxicity in cell viability studies” value (HUVECs [5]; HUVECs, CCK-8, peptide up to 200 µM, 24 h) was “no cytotoxicity”.

For “Ac-KYIGR-KRB [fluorescence labeled peptide with YIG on the side chain, cannot undergo a switch; negative control]”, the “fluorescence signal on HUVECs” value ([3]; with trypsin, 30 h) was “no fluorescence” and the “fluorescence signal on HUVECs” value ([3]; without trypsin, 30 h) was “no fluorescence”.

With “KSYIGR, where the SYIG unit indicates a Ser residue esterified with the Ac-YIG peptide sequence (Ac = acetyl)” the cleaved bond (trypsin [6]) was “Lys-Ser, 1 h”.

With “Ac-KSYIGRK (also: lariat or depsi (positions not given here))” the “trypsin cleavage at K–SYIG versus R–K peptide bond” value (trypsin [1]; trypsin, cleavage at either site but not both simultaneously) was “approximately the same rate”.

For “Ac-YIGSR-KRB [rhodamine B-labeled functional peptide, positive control]”, the “fluorescence signal on HUVECs” value ([3]; without trypsin, 30 h) was “strong fluorescence” and the “co-localization of rhodamine B-labeled peptide with anti-CD29-FITC stain” value (CD29 (integrin β1)) was “colocalized with integrin β1”.

B1: trypsin: enzyme that cleaves peptide bonds on the C-terminal side of positively charged residues (protein, UniProt P00760 24-246, looked up)
Serine protease 1: IVGGYTCGANTVPYQVSLNSGYHFCGGSLINSQWVVSAAHCYKSGIQVRLGEDNINVVEGNEQFISASKSIVHPSYNSNTLNNDIMLIKLKSAASLNSRVASISLPTSCASAGTQCLISGWGNTKSSGTSYPDVLKCLKAPILSDSSCKSAYPGQITSNMFCAGYLEGGKDSCQGDSGGPVVCSGKLQGIVSWGSGCAQKNKPGVYTKVCNYVSWIKQTIASN
In the case of B1, the “cytotoxicity in cell viability studies” value (HUVECs [5]) is reported as “no cytotoxicity”.
